Results reported in PubChem BioAssay (NCI).
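Growth conditions: 96-well plates. Treatment: test compound, 48 hours, 5 concentrations. Analysis: linear interpolation between bracketing concentrations; unreached endpoints set to highest concentration. Abbreviation: GI50, concentration required for 50% inhibition of growth. TGI: concentration producing complete growth inhibition.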

Key:
Assay in all cases: NCI-60 cell line screen, 48 h
DU-145 prostate = test system: DU-145 prostate
NCI-H226 lung = test system: NCI-H226 lung
NCI-H460 lung = test system: NCI-H460 lung
OVCAR-3 ovarian = test system: OVCAR-3 ovarian
RXF 393 renal = test system: RXF 393 renal
SN12C renal = test system: SN12C renal
UACC-62 melanoma = test system: UACC-62 melanoma
UO-31 renal = test system: UO-31 renal
COLO 205 colon = test system: COLO 205 colon
SNB-75 CNS = test system: SNB-75 CNS

## O=C(NNc1ccc(Cl)cc1)C1CCC(CNS(=O)(=O)c2ccccc2Cl)CC1 (centres undefined)
DU-145 prostate
  GI50: 31.6 µM
  TGI: > 100 µM
NCI-H226 lung
  GI50: 20.2 µM
  TGI: > 100 µM
NCI-H460 lung
  GI50: 14.3 µM
  TGI: > 100 µM
OVCAR-3 ovarian
  GI50: 8.68 µM
  TGI: 39.8 µM
RXF 393 renal
  GI50: 24.5 µM
  TGI: 65.7 µM
SN12C renal
  GI50: 14.7 µM
  TGI: 50.9 µM
UACC-62 melanoma
  GI50: 2.81 µM
  TGI: 9.64 µM
UO-31 renal
  GI50: 56.2 µM
  TGI: > 100 µM

## C1CCCCc2nc3c(nc2CCC1)c1nc2c(nc1c1nc4c(nc31)CCCCCCCC4)CCCCCCCC2
COLO 205 colon
  TGI: > 100 µM
NCI-H460 lung
  TGI: > 100 µM
SN12C renal
  TGI: > 100 µM
SNB-75 CNS
  TGI: > 100 µM
UACC-62 melanoma
  TGI: > 100 µM
UO-31 renal
  TGI: > 100 µM

## Cc1ccc2nc(NC(=O)C(=O)C(C#N)c3ccc(Cl)cc3)sc2c1 (centres undefined)
COLO 205 colon
  TGI: > 50 µM
NCI-H226 lung
  TGI: > 50 µM
NCI-H460 lung
  TGI: > 50 µM
OVCAR-3 ovarian
  TGI: > 50 µM
RXF 393 renal
  TGI: > 50 µM
SN12C renal
  TGI: > 50 µM
SNB-75 CNS
  TGI: > 50 µM
UACC-62 melanoma
  TGI: > 50 µM
UO-31 renal
  TGI: > 50 µM

## CC1=C(SC#N)S(=O)(=O)N(c2ccccc2)C(C)=C1SC#N
NCI-H226 lung
  TGI: 81.6 µM
NCI-H460 lung
  TGI: > 100 µM
RXF 393 renal
  TGI: > 100 µM
SN12C renal
  TGI: > 100 µM
SNB-75 CNS
  TGI: 63.9 µM
UACC-62 melanoma
  TGI: > 100 µM
UO-31 renal
  TGI: > 100 µM

## NC1c2ccccc2Nc2ccccc21
COLO 205 colon
  TGI: 6.52 µM
NCI-H226 lung
  TGI: 27.9 µM
NCI-H460 lung
  TGI: 11.1 µM
OVCAR-3 ovarian
  TGI: 28.9 µM
RXF 393 renal
  TGI: 15.9 µM
SN12C renal
  TGI: 19 µM
SNB-75 CNS
  TGI: 24.4 µM
UACC-62 melanoma
  TGI: 15.5 µM
UO-31 renal
  TGI: 13.4 µM

## CCCOC(=O)c1c(C)n(C)c2scc[n+]12
COLO 205 colon
  GI50: 17.8 µM
  TGI: 46.8 µM
DU-145 prostate
  GI50: 86.1 µM
  TGI: > 100 µM
NCI-H226 lung
  GI50: 62.3 µM
  TGI: > 100 µM
NCI-H460 lung
  GI50: 52.8 µM
  TGI: > 100 µM
OVCAR-3 ovarian
  GI50: 30.6 µM
  TGI: > 100 µM
SN12C renal
  GI50: 59.5 µM
  TGI: > 100 µM
SNB-75 CNS
  GI50: 50.5 µM
  TGI: > 100 µM
UACC-62 melanoma
  GI50: > 100 µM
  TGI: > 100 µM
UO-31 renal
  GI50: > 100 µM
  TGI: > 100 µM

## COc1ccc(C(=O)c2cc(C)c(OC)c(C)c2)c(OC)c1NC(C)=O
COLO 205 colon
  GI50: 0.299 µM
  TGI: 1.28 µM
DU-145 prostate
  GI50: 0.0483 µM
  TGI: > 100 µM
NCI-H226 lung
  GI50: 0.102 µM
  TGI: 1.58 µM
NCI-H460 lung
  GI50: 0.3 µM
  TGI: > 33.9 µM
OVCAR-3 ovarian
  GI50: 0.483 µM
SN12C renal
  GI50: 0.448 µM
  TGI: > 100 µM
SNB-75 CNS
  GI50: 0.0425 µM
  TGI: > 100 µM
UACC-62 melanoma
  GI50: 0.333 µM
  TGI: > 100 µM
UO-31 renal
  GI50: 0.167 µM
  TGI: > 63.1 µM

## Nc1nc2c(C(=O)NCc3cccs3)nnn2c2cccc(Cl)c12
COLO 205 colon
  TGI: > 100 µM
DU-145 prostate
  TGI: > 100 µM
NCI-H226 lung
  TGI: > 100 µM
NCI-H460 lung
  TGI: > 100 µM
OVCAR-3 ovarian
  TGI: > 100 µM
RXF 393 renal
  TGI: > 100 µM
SN12C renal
  TGI: > 100 µM
UACC-62 melanoma
  TGI: > 100 µM
UO-31 renal
  TGI: > 100 µM

## COCCOc1cc(C)cc(/C=C(C)/C=C/C2=C(C)CCCC2(C)C)n1
COLO 205 colon
  TGI: > 100 µM
NCI-H226 lung
  TGI: > 100 µM
NCI-H460 lung
  TGI: > 100 µM
OVCAR-3 ovarian
  TGI: > 100 µM
RXF 393 renal
  TGI: > 100 µM
SN12C renal
  TGI: > 100 µM
SNB-75 CNS
  TGI: > 100 µM
UACC-62 melanoma
  TGI: > 100 µM
UO-31 renal
  TGI: > 100 µM

## COc1ccc2nc(C(=O)c3ccccc3)c(C)cc2c1
COLO 205 colon
  TGI: > 34.5 µM
NCI-H226 lung
  TGI: > 86 µM
NCI-H460 lung
  TGI: > 100 µM
OVCAR-3 ovarian
  TGI: > 24.3 µM
RXF 393 renal
  TGI: 17.3 µM
SN12C renal
  TGI: > 65.8 µM
SNB-75 CNS
  TGI: 14.4 µM
UACC-62 melanoma
  TGI: > 100 µM
UO-31 renal
  TGI: > 57.7 µM

## N#CC(C(=O)CCCC(=O)Nc1ccc(Cl)cc1Cl)c1ccccc1 (centres undefined)
COLO 205 colon
  TGI: > 100 µM
NCI-H226 lung
  TGI: > 100 µM
NCI-H460 lung
  TGI: > 100 µM
OVCAR-3 ovarian
  TGI: > 100 µM
RXF 393 renal
  TGI: > 100 µM
SN12C renal
  TGI: > 100 µM
UACC-62 melanoma
  TGI: > 100 µM
UO-31 renal
  TGI: > 100 µM

## CN=C1C=CC(=C(c2ccc(N(C)C)cc2)c2ccc(N(C)C)cc2)C=C1
COLO 205 colon
  GI50: 0.184 µM
  TGI: 0.524 µM
DU-145 prostate
  GI50: 0.274 µM
  TGI: 1.71 µM
NCI-H460 lung
  GI50: 0.13 µM
  TGI: 0.909 µM
OVCAR-3 ovarian
  GI50: 0.295 µM
  TGI: 0.936 µM
RXF 393 renal
  GI50: 0.207 µM
  TGI: 0.583 µM
SN12C renal
  GI50: 0.163 µM
  TGI: 3.04 µM
SNB-75 CNS
  GI50: 0.295 µM
  TGI: 1.04 µM
UACC-62 melanoma
  GI50: 0.297 µM
  TGI: 1.39 µM
UO-31 renal
  GI50: 0.317 µM
  TGI: 1.21 µM

## COc1cc(OC)cc(C2C3=C(COC3=O)Nc3cc(OC)ccc32)c1 (centres undefined)
COLO 205 colon
  GI50: < 0.01 µM
  TGI: < 0.01 µM
DU-145 prostate
  GI50: < 0.01 µM
  TGI: 0.0486 µM
NCI-H226 lung
  GI50: < 0.01 µM
  TGI: 0.0207 µM
NCI-H460 lung
  GI50: < 0.01 µM
  TGI: 0.495 µM
OVCAR-3 ovarian
  GI50: < 0.01 µM
  TGI: < 0.01 µM
SN12C renal
  GI50: 0.0146 µM
  TGI: > 77.6 µM
SNB-75 CNS
  GI50: < 0.01 µM
  TGI: 24.1 µM
UACC-62 melanoma
  GI50: < 0.01 µM
  TGI: > 81.2 µM
UO-31 renal
  GI50: 0.0387 µM
  TGI: > 67.7 µM

## COC1=CC(C2c3cc4c(cc3[C@@H](Nc3ccc(F)cc3)C3COC(=O)[C@H]23)OCO4)=CC(=O)C1=O (some centres undefined)
COLO 205 colon
  TGI: 41.5 µM
NCI-H226 lung
  TGI: 39.3 µM
NCI-H460 lung
  TGI: 14.9 µM
OVCAR-3 ovarian
  TGI: > 66.5 µM
RXF 393 renal
  TGI: > 100 µM
SN12C renal
  TGI: 24.8 µM
SNB-75 CNS
  TGI: > 45.1 µM
UACC-62 melanoma
  TGI: 20.7 µM
UO-31 renal
  TGI: 30.2 µM

## O=C(O)CCNS(=O)(=O)c1ccc2ccccc2c1
COLO 205 colon
  TGI: > 100 µM
NCI-H226 lung
  TGI: > 100 µM
NCI-H460 lung
  TGI: > 100 µM
OVCAR-3 ovarian
  TGI: > 100 µM
SN12C renal
  TGI: > 100 µM
SNB-75 CNS
  TGI: > 100 µM
UACC-62 melanoma
  TGI: > 100 µM
UO-31 renal
  TGI: > 100 µM

## C=C1C(O)C2CC(C)(CO)C(=O)C2=C(CC(C)C)C12CC2 (centres undefined)
COLO 205 colon
  GI50: > 100 µM
  TGI: > 100 µM
DU-145 prostate
  GI50: 86.4 µM
  TGI: > 100 µM
NCI-H226 lung
  GI50: > 100 µM
  TGI: > 100 µM
NCI-H460 lung
  GI50: 67 µM
  TGI: > 100 µM
OVCAR-3 ovarian
  GI50: 36.5 µM
  TGI: 92.4 µM
RXF 393 renal
  GI50: > 100 µM
  TGI: > 100 µM
SN12C renal
  GI50: > 100 µM
  TGI: > 100 µM
UACC-62 melanoma
  GI50: 78.6 µM
  TGI: > 100 µM
UO-31 renal
  GI50: > 100 µM
  TGI: > 100 µM

## Cc1cccc(C(=O)O)c1C(=O)c1cccc2ccccc12
COLO 205 colon
  TGI: > 100 µM
NCI-H226 lung
  TGI: > 100 µM
NCI-H460 lung
  TGI: > 100 µM
OVCAR-3 ovarian
  TGI: > 100 µM
RXF 393 renal
  TGI: > 100 µM
SN12C renal
  TGI: > 100 µM
SNB-75 CNS
  TGI: > 100 µM
UACC-62 melanoma
  TGI: > 100 µM
UO-31 renal
  TGI: > 100 µM

## CC1OC(=O)C(O)=C1O (centres undefined)
COLO 205 colon
  TGI: > 100 µM
NCI-H226 lung
  TGI: > 100 µM
NCI-H460 lung
  TGI: > 100 µM
OVCAR-3 ovarian
  TGI: > 100 µM
RXF 393 renal
  TGI: > 100 µM
SN12C renal
  TGI: > 100 µM
SNB-75 CNS
  TGI: > 100 µM
UACC-62 melanoma
  TGI: > 100 µM
UO-31 renal
  TGI: > 100 µM

## CCC(C)CC(C)CC(C)/C=C(\C)C1=C(C)CC(C)(O)O1 (centres undefined)
COLO 205 colon
  TGI: > 100 µM
NCI-H226 lung
  TGI: > 100 µM
NCI-H460 lung
  TGI: > 100 µM
RXF 393 renal
  TGI: > 100 µM
SN12C renal
  TGI: > 100 µM
SNB-75 CNS
  TGI: > 100 µM
UACC-62 melanoma
  TGI: > 100 µM
UO-31 renal
  TGI: > 100 µM
